Consider four molecules from patent US20140066365A1, “USE OF CALIXARENES ASSOCIATED WITH AN ANTIBIOTIC IN THE TREATMENT OF BACTERIAL INFECTIONS” (priority 2011, published 2014).

Converted amounts (≈) assume the structure as drawn. Read-outs that look alike come from different tables or passages of the source. Bounds are passed on as bounds.

Assay [1] relates to ESBL-producing strain of Escherichia coli, having an associated resistance to the aminoglycosides (EcR3). Description: MIC of the compounds used alone, microdilution in a liquid medium (CLSI). The format is cell-based. The following applies: Escherichia coli, antibiotic alone (second value of cell), read-out: Initial MICs. The text has this:
(§1) The MICs of the antibiotics were previously defined for each strain, by the method of microdilution in a liquid medium (CLSI (Clinical and Laboratory Standards Institute), 2003).
On the technique in general: Dilution methods test growth across graded concentrations, often in twofold steps.

For assay [2], the system named is Escherichia coli strain ATCC 25922 (wild type). Described as above. As to conditions: Escherichia coli, ATCC25922; antibiotic alone (second value of cell); E. coli ATCC 25922; read-out: Initial MICs. The format is cell-based.
Excerpt: as §1

Assay [3] concerns Pseudomonas aeruginosa strain ATCC 27853 (wild type). The description is as above. The class given is cell-based. As to conditions: Pseudomonas aeruginosa, ATCC27853; antibiotic alone (second value of cell); P. aeruginosa ATCC 27853; read-out: MIC.
Excerpt: as §1

Assay [4] concerns Pseudomonas aeruginosa strain PaR3. Described as above. The class given is cell-based. The following applies: Pseudomonas aeruginosa, antibiotic alone (second value of cell), read-out: MIC.
Excerpt: as §1

Assay [5] relates to cephalosporinase-hyperproducing strain of Escherichia coli (EcR2). The assay is described as above. The class given is cell-based. The following applies: Escherichia coli, antibiotic alone (second value of cell), read-out: Initial MICs.
Excerpt: as §1

Assay [6] has as its system mucoid strain of Pseudomonas aeruginosa PaR5. The assay is described as above. The class given is cell-based. As to conditions: Pseudomonas aeruginosa, antibiotic alone (second value of cell), read-out: MIC.
Excerpt: as §1

Assay [7] relates to penicillinase-producing strain of Escherichia coli without associated resistance (EcR1). The assay is described as above. As to conditions: Escherichia coli, antibiotic alone (second value of cell), read-out: Initial MICs. The format is cell-based.
Excerpt: as §1

In assay [8] the test system is Pseudomonas aeruginosa strain PaR2. Briefly: microbe, parasite or virus in culture. As to conditions: Pseudomonas aeruginosa, antibiotic alone (second value of cell), read-out: MIC. The format is cell-based.
Excerpt: as §1

Assay [9] relates to EcR1: Penicillinase-Producing Escherichia coli without Associated Resistance. Briefly: Antibiogram, MIC by the VITEK 2 system. The class given is cell-based. The following applies: for MIC: Escherichia coli. The procedure:
5.1 EcR1: Penicillinase-Producing Escherichia coli without Associated Resistance The bacterial and antibiogramidentification is carried out by the VITEK 2 system (bioMérieux) and by the disk diffusion technique.

In assay [10] the test system is EcR2: Cephalosporinase-Hyperproducing Strain of Escherichia coli. Description: Antibiogram by the disk diffusion technique. The class given is cell-based. The procedure:
The bacterial and antibiogramidentification is carried out by the VITEK 1 system (bioMérieux) and by the disk diffusion technique
(Agar diffusion results depend on both activity and mobility in agar.)

For assay [11], the system named is PaR3: Pseudomonas aeruginosa. Description: Antibiogram, MIC by the VITEK 2 system. The class given is cell-based. How it is done:
(§2) The bacterial and antibiogramidentification is carried out by the VITEK 2 system (bioMérieux)

Assay [12] relates to PaR5: Pseudomonas aeruginosa. Description: Antibiogram by the disk diffusion technique. The format is cell-based. How it is done:
(§3) The bacterial and antibiogramidentification is carried out by the VITEK 2 system (bioMérieux) and by the disk diffusion technique

The subject of assay [13] is PaR2: Pseudomonas aeruginosa. The class given is cell-based. How it is done: as §3
Assay [14] deals with Escherichia coli, Staphylococcus aureus and Pseudomonas aeruginosa strains. Briefly: Chessboard technique, summary statements over all strains and combinations tested. The class given is cell-based. The following applies: strain not stated. The text has this:
1.3. Procedure: Chessboard Technique
The same procedure is followed for the Cx1. […] Thus 64 ATB/Cx1 combinations are obtained.
The FIC (Fractional Inhibitory Concentration Index) value is defined by the following formula: […]
When FIC≦0.5, there is a synergistic effect between antibiotic A and antibiotic B.
When 0.5<FIC≦1, there is an additive effect between antibiotic A and antibiotic B.
When 1<FIC≦4, there is an indifferent effect between antibiotic A and antibiotic B.
When FIC>4, there is an antagonistic effect between antibiotic A and antibiotic B.
For each strain and each antibiotic/Cx1 combination, the experiments were repeated a minimum of 3 times.

Assay [15] has as its system Staphylococcus aureus strain ATCC 29213 (wild type). Description: MIC of the compounds used alone, microdilution in a liquid medium (CLSI). The format is cell-based. The following applies: Staphylococcus aureus.
Excerpt: as §1

Assay in assay [16]: as above
The class given is cell-based, Staphylococcus aureus. As to conditions: Staphylococcus aureus, MRSA.
Excerpt: as §1

The subject of assay [17] is MRSA strain having a resistance to the aminoglycosides and fluoroquinolones (SaR3). The assay is described as above. The format is cell-based, Staphylococcus aureus. As to conditions: Staphylococcus aureus, MRSA.
Excerpt: as §1

Assay [18] concerns MRSA strain without associated resistance (SaR1). The assay is described as above. The class given is cell-based, Staphylococcus aureus. As to conditions: Staphylococcus aureus, MRSA.
Excerpt: as §1

In assay [19] the test system is SaR1: Meticillin-Resistant Staphylococcus aureus without Associated Resistance. Briefly: Antibiogram, MIC by the VITEK 2 system. As to conditions: SaR1. The class given is cell-based. How it is done:
as §2

The test system of assay [20] is SaR3: Meticillin-Resistant Staphylococcus aureus. Briefly: Antibiogram by the disk diffusion technique. The class given is cell-based. How it is done: as §3
In assay [21] the test system is SaR4: Meticillin-Resistant Staphylococcus aureus. Description: Antibiogram, MIC by the VITEK 2 system. The format is cell-based. The following applies: SaR4; for MIC: Staphylococcus aureus, read-out: MIC. How it is done:
as §3

The test system of assay [22] is SaR1: Meticillin-Resistant Staphylococcus aureus without Associated Resistance. Description: Antibiogram, inhibition diameter (Table D1). The class given is cell-based. The procedure:
as §2

[23] abbreviates: ATCC29213, antibiotic alone (second value of cell), S. aureus ATCC 29213, read-out: Initial MICs.
The mark [24] stands for this setting: antibiotic alone (second value of cell), SaR4, read-out: MIC.
Where [25] appears, read: antibiotic alone (second value of cell), SaR3, read-out: MIC.
Setting [26] is: antibiotic alone (second value of cell), SaR1, read-out: MIC.

As for `CC(C)(O/N=C(\C(=O)N[C@@H]1C(=O)N2C(C(=O)[O-])=C(C[n+]3ccccc3)CS[C@H]12)c1csc(N)n1)C(=O)O` [Ceftazidime], the MIC in [1] was 1 µg/mL; in [2], 0.125 µg/mL; in [3], 4 µg/mL; in [4], 16 µg/mL; in assay [5] it was 8 µg/mL; in [6], 8 µg/mL. Further, the MIC in [7] was 0.25 µg/mL; in [8] it was 8 µg/mL (≈ 14.6 µM); in assay [9] (EcR1, Table A2, read-out: MIC mg/L (diameter in mm)) it was at most 1 mg/L; in [9] (EcR1, VITEK 2, Table A1, read-out: MIC), at most 1 mg/L; in assay [11] (Pseudomonas aeruginosa, Table H2, read-out: MIC) it was 4 µg/mL (≈ 7.32 µM); in assay [11] (Table H1), 4 µg/mL (≈ 7.32 µM). The “CA-SFM Interpretation” value in assay [9] (EcR1, MIC against Cc CA-SFM 2011) is “Susceptible”; in [10] (EcR2, from diameter, CA-SFM 2011), “Resistant”; in [11] (Cc CA-SFM 2011) it was “Susceptible”; in assay [12] (disk diffusion, PaR5, versus critical diameter CA-SFM 2011), “Susceptible”; in assay [13] (Cd CA-SFM 2011) it was “Susceptible”. In addition, the “CLSI Interpretation” value in assay [9] (EcR1, MIC against Cc CLSI 2011) was “Susceptible”; in assay [10] (EcR2, from diameter, CLSI 2011), “Intermediate”; in assay [11] (Cc CLSI 2011) it was “Susceptible”; in [12] (disk diffusion, PaR5, versus critical diameter CLSI 2011), “Susceptible”; in [13] (Cd CLSI 2011), “Susceptible”. Besides, the “EUCAST Interpretation” value in assay [9] (EcR1, MIC against Cc EUCAST 2011) is on record as “Susceptible”; in assay [10] (EcR2, from diameter, EUCAST 2011), “Intermediate”; in [11] (Cc EUCAST 2011) it was “Susceptible”; in [12] (disk diffusion, PaR5, versus critical diameter EUCAST 2011, for ** antibiotics the disk load differs and the EUCAST interpretation is not applicable), “Susceptible”; in assay [13] (Cd EUCAST 2011) it was “Susceptible”. The Results entry in [9] (EcR1, interpretation of the MIC, Table A1) is recorded as “Susceptible”; in assay [10] (EcR2, rows that print a diameter, Table B1) it was “Intermediate”; in [11] (Table H1), “Susceptible”; in [12] (PaR5, Table I1, against Dmin-Dmax) it was “Susceptible”; in assay [13] (Table G1, against Dmin-Dmax) it was “Susceptible”. Further, the Diameter was found to be 20 in [10] (EcR2, disk diffusion, Table B1); 20 mm in [10] (EcR2, Table B2, diameters); 32 mm in [12] (PaR5, Table I1); 23 mm in [13] (Table G1). Besides, the diameter in mm in assay [12] (disk diffusion inhibition diameter, strain PaR5) is on record as 32 mm; in [13] (Table G2), 23 mm. Moreover, in assay [14], the “interaction between the antibiotic and Cx1” value is “synergism”.

As for `[H]/N=C(/N)N[C@H]1[C@H](O)[C@@H](O)[C@H](O[C@@H]2O[C@@H](C)[C@](O)(C=O)[C@H]2O[C@@H]2O[C@@H](CO)[C@H](O)[C@@H](O)[C@@H]2NC)[C@@H](N/C(N)=N\[H])[C@@H]1O` [Streptomycin], the MIC amounted to 4 mg/L in assay [15] (setting [23]), 4 µg/mL in assay [16] (setting [24]), 4 µg/mL in assay [17] (setting [25]) and 4 µg/mL in assay [18] (setting [26]). The “interaction between the antibiotic and Cx1” value in [14] is “synergism”.

For `CC(=O)O[C@H]1C[C@@]2(C)[C@@H](C[C@@H](O)[C@H]3[C@@]4(C)CC[C@@H](O)[C@@H](C)[C@@H]4CC[C@@]32C)/C1=C(\CCC=C(C)C)C(=O)O` [Fusidic acid], the MIC was 2 mg/L in [15] (setting [23]); 4 µg/mL in [16] (setting [24]); 0.25 µg/mL in assay [17] (setting [25]); 0.5 µg/mL in [18] (setting [26]); at most 0.5 µg/mL in assay [19] (Staphylococcus aureus, Table D1, read-out: MIC); at most 1 µg/mL in assay [21] (Table F1). The MIC in assay [21] (Table F2, MIC) was at most 1 µg/mL. Besides, the “CA-SFM Interpretation” value in assay [19] (Cc CA-SFM 2011) is listed as “Susceptible”; in assay [20] (Cd CA-SFM 2011) it was “Susceptible”; in assay [21] (from MIC, Cc CA-SFM 2011), “Susceptible”. The “EUCAST Interpretation” value is “Susceptible” in assay [19] (Cc EUCAST 2011); “Susceptible” in assay [20] (Cd EUCAST 2011); “Susceptible” in [21] (from MIC, Cc EUCAST 2011). The Results entry in [19] (Table D1, from MIC) was “Susceptible”; in assay [20] (Table E1, against Dmin Dmax), “Susceptible”; in assay [21] (Table F1, MIC), “Susceptible”; in [22] (from diameter, against Dmin Dmax), “Susceptible”. Further, the “MIC mg/L” value in assay [19] (Table D2) is reported as “≦0.5 mg/L”. Further, the Diameter in [20] (Table E1) was found to be 29 mm; in assay [22] it was 28 mm. The molecule also registered a diameter in mm in assay [20] (Table E2) of 29 mm. The “interaction between the antibiotic and Cx1” value in [14] was “synergism”.

`CN(C)c1cc(NC(=O)CNC(C)(C)C)c(O)c2c1C[C@H]1C[C@H]3[C@H](N(C)C)C(O)=C(C(N)=O)C(=O)[C@@]3(O)C(O)=C1C2=O` [Tigecycline]: the MIC turned out to be 0.25 mg/L in assay [15] (ATCC29213, read-out: Initial MICs (mg/L)); 0.25 µg/mL in assay [16]; 0.25 µg/mL in assay [17]; 0.25 µg/mL in assay [18]. The “interaction between the antibiotic and Cx1” value in assay [14] is listed as “synergism”.
